We go through nine compounds from ChEMBL document CHEMBL1131773, “Synthesis and structure-activity relationships of new non-steroidal progesterone receptor ligands” (Bioorg Med Chem Lett, 1999).

SMILES strings stand for the structures.

The experiment addresses T1, Progesterone receptor (Homo sapiens) (UniProt P06401).
T1 sequence (whole entry): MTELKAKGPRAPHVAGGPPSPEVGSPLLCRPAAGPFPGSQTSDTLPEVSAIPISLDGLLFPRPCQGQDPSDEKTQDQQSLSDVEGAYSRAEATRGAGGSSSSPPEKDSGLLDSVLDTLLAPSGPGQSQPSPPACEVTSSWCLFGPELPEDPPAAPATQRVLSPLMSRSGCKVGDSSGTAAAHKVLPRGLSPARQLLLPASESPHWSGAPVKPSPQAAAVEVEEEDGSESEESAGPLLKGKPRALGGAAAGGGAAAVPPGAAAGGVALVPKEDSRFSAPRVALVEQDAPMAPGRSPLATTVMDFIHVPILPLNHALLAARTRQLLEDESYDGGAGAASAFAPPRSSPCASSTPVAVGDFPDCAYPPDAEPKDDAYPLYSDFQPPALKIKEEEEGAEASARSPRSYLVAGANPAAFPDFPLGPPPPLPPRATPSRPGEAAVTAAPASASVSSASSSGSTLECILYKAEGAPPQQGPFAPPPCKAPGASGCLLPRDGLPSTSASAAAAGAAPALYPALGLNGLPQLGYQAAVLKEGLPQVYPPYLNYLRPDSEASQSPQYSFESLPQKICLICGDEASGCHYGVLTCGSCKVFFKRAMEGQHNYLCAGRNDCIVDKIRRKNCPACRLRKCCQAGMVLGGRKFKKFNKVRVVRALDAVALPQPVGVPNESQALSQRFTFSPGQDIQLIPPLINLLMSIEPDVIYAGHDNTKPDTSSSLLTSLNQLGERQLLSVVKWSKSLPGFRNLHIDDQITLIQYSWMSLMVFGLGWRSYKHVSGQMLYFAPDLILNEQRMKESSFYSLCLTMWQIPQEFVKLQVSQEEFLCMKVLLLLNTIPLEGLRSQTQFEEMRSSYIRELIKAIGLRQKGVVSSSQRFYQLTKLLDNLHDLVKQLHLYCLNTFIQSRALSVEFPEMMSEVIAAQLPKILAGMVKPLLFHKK
Kind of experiment: Relative Binding affinity(RBA) to human progesterone receptor(PR) compared to PF1092A; (RBA= IC50 of PF1092A/ IC50 of test compound at human PR).

In the case of `CCC1=C2C[C@@]3(C)C(=CC[C@H](OC(C)=O)[C@@H]3C)C=C2OC1=O`, the relative binding affinity (RBA) was determined as 0.2.

`CC(=O)O[C@H]1CC=C2C=C3OC(=O)C=C3C[C@]2(C)[C@H]1C`: the relative binding affinity (RBA) came out at 1.2.

`CC(=O)O[C@H]1CC=C2C(C)=C3OC(=O)C(C)=C3C[C@]2(C)[C@H]1C` displayed a relative binding affinity (RBA) of 0.07.

For the compound `CC(=O)O[C@H]1CC=C2C=C3OC(=O)C(C)=C3C[C@]2(C)[C@H]1C`, the relative binding affinity (RBA) turned out to be 0.8.

Compound `CC(=O)O[C@H]1[C@@H](O)C=C2C=C3OC(=O)C(C)=C3C[C@]2(C)[C@H]1C` yielded a relative binding affinity (RBA) of 1.

As to `CO[C@H]1[C@@H](OC(C)=O)CC=C2C=C3OC(=O)C(C)=C3C[C@@]21C`, the relative binding affinity (RBA) was determined as 0.7.

In the case of `CC(=O)O[C@H]1CC=C2C=C3OC(=O)C(C)=C3C[C@]2(C)C1`, the relative binding affinity (RBA) worked out at 0.08.

Turning to `CC(=O)O[C@H]1CC=C2C=C3OC(=O)C(C)=C3[C@H](C)[C@]2(C)[C@H]1C`, the relative binding affinity (RBA) was found to be 0.8.

Compound `CC(=O)O[C@H]1[C@H](C)C=C2C=C3OC(=O)C(C)=C3C[C@]2(C)[C@H]1C` had a relative binding affinity (RBA) of 1.6.
